Laboratory results reported in patent US7053219B2, “Isoxazolopyridone derivatives and their use” (Banyu Pharmaceutical Co. Ltd., priority 2001, dated 2006).

Molecular target: T1, rat metabotropic glutamic acid receptor 7a (Rattus norvegicus, UniProt P35400)
T1 construct: expressed in transfected cells
Test: Metabotropic glutamic acid receptor-antagonistic effect (Test Method 1, [Ca2+]i by FLIPR)
Type: cell-based
Conditions: CHO cells stably expressing rat metabotropic glutamic acid receptor 7a and Gα15, agonist 0.5 mM L-AP4, test compound given 5 minutes before agonist, [Ca2+]i with Fluo-3AM
From the text: (Test Method 1) Metabotropic Glutamic Acid Receptor-Antagonistic Effect:
Using LIPOFECTAMINE (by Gibco BRL), CHO cells were transfected with a CDNA of rat metabotropic glutamic acid receptor 7a, which is described in J. Biol. Chem., N. Okamoto et al., Vol. 269, pp. 1231–1236, 1994, to give a cell strain capable of stably expressing rat metabotropic glutamic acid receptor 7a. The metabotropic glutamic acid receptor 7a-transfected CHO cells were further transfected with a Gα15 cDNA, which is describedin J. Biol. Chem., S. Offermanns, M. I. Simon, Vol. 270, pp. 15175–15180, 1995, to give a cell strain capable of stably expressing rat metabotropic glutamic acid receptor 7a and Gα15. The CHO cells capable of stably expressing metabotropic glutamic acid receptor 7a and Gα15 were incubated along with Fluo-3AM (final concentration 4 μM) at 37° C. for 1 hour, and then washed 4 times with an assay buffer (1×Hanks' salt with 2.5 mM probenecid and 20 mM HEPES (N-2-hydroxyethylpiperazine-N′-2-ethanesulfonic acid), and the resulting cells were assayed for [Ca^2+]i. For the determination of [Ca^2+]i, used was a fluorimetric imaging plate reader (FLIPR by Molecular Device). Concretely, using an agonist, 0.5 mM L-AP4, the capacity of the antagonistic substance was measured.
The Hanks' salt was prepared by 10-fold diluting a Hanks' balanced solution (Gibuco BRL 14065-056 10×). […]

T1 sequence (P35400 35-915): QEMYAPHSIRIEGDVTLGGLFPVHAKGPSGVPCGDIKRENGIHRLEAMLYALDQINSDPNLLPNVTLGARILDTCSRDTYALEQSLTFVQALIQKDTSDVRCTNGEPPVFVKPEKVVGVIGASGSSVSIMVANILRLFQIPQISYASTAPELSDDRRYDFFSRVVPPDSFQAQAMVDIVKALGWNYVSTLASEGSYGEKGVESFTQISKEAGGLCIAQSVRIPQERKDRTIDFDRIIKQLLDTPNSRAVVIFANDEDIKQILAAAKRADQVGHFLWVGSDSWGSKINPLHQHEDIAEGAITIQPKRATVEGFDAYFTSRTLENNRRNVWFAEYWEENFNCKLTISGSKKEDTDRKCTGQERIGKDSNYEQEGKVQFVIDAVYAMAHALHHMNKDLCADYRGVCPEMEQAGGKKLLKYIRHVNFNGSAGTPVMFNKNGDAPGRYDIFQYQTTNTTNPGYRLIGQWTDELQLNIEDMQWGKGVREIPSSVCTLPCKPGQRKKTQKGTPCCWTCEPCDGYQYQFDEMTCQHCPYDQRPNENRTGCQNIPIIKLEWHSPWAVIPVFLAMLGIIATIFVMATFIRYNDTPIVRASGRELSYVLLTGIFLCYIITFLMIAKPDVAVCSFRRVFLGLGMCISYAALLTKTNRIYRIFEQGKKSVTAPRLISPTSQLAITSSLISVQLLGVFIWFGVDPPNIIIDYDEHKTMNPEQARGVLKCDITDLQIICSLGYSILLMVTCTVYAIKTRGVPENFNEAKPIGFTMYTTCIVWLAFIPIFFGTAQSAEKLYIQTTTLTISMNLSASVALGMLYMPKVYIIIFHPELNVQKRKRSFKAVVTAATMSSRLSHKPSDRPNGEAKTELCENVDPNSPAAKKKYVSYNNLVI

IC50	SMILES
7.65 nM	COc1ccccc1-c1noc2cc(-c3ccccc3)n(C)c(=O)c12 [Production Example 8, 5-methyl-3-(2-methoxyphenyl)-6-phenylisoxazolo[4,5c]pyridin-4(5H)-one]
10.4 nM	Cn1c(-c2cccnc2)cc2onc(-c3ccncc3)c2c1=O [Production Example 32, 5-methyl-6-pyridin-3-yl-3-pyridin-4-yl-isoxazolo[4,5-c]-pyridin-4(5H)-one]
